Assay results published in patent US20250382322A1, “DIAGNOSTICS FOR DETECTING ECTO-5'-NUCLEOTIDASE (CD73)” (EBERHARD KARLS UNIVERSITÄT TÜBINGEN, priority 2022, published 2025).

How the values were obtained:
[1] = target: T1, recombinant soluble human CD73 (Homo sapiens, UniProt P21589, T376A); assay: CD73 enzyme inhibition assay with [2,8-3H]AMP, soluble human CD73; format: biochemical; conditions: [2,8-3H]AMP (5 μM) as substrate; Ki from IC50 by Cheng-Prusoff; read-out: Human soluble CD73 Ki ± SEM
T1 construct: mature human CD73 (residues 27-549) fused to 6×His-tag at the C-terminus; 6xHis (C); made in house; host or cells: Spodoptera frugiperda Sf9 insect cells (baculovirus, pAcGP67B vector)
T1 sequence (P21589 27-549 T376A): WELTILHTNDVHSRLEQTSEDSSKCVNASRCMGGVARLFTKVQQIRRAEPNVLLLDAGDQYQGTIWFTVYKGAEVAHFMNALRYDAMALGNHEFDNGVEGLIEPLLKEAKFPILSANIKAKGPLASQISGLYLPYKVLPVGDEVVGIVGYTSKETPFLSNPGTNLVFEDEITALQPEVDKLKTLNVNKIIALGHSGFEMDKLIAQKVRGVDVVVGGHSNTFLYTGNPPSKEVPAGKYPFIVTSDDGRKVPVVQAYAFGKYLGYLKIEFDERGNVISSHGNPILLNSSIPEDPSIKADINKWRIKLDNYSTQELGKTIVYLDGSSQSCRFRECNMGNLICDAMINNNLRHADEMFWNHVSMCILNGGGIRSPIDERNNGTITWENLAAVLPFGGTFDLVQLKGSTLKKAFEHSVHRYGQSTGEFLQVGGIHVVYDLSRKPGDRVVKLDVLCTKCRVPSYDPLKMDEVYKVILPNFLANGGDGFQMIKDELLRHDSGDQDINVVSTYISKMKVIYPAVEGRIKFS
Experimental: Compound 2b, its precursor 1, and 20 were investigated for their CD73-inhibitory potency using tritium-labeled AMP as a substrate.^20 After incubation with CD73, non-hydrolyzed substrate and inorganic phosphate were precipitated using a solution of lanthanum chloride, and the precipitate was separated from the solution containing the reaction product [2,8-^3H]adenosine by filtration through GF/B glass fiber filters (WhatmanTM GE Healthcare, Chicago, IL, USA) using a cell harvester (M-48, Brandel, Gaitherburg, MD, USA). The filtrates (ca. 1.8 mL each) were transferred to scintillation vials, scintillation cocktail ULTIMA Gold XR (PerkinElmer, Waltham, MA, USA) was added (5 mL), and the radioactivity esd quantified by scintillation counting. CD73 preparations were (1) recombinant soluble human CD73,^13 (2) recombinant soluble rat CD73,^21 both expressed in Spodoptera frugiperda 9 (Sf) cells, (3) membrane preparations of MDA-MB-231 cells,^16 a human triple-negative breast cancer cell line with high expression of CD73,^18 and (4) membrane preparations of the 4T1.2 cell line, a mouse CD73-expressing breast cancer cell line.^22 The potency of the compounds was determined by measurements of full concentration-inhibition curves. K values were calcuated from the obtained IC50 values employing the Cheng-Prusoff equation.^23
Human soluble CD73 was expressed in Spodoptera frugiperda (Sf9) insect cells and purified as previously described.^16 The cDNA encoding for the mature human CD73 (residues 27-549) fused to 6×His-tag at the C-terminus (Genbank accession no. NM_002526) corresponding to the natural variant T376A (P21589/VAR_022091, UniProtKB/Swiss-Prot) was ligated into the pAcGP67B vector. For transfection, 1 μl of the recombinant vector (1000 ng/μl) mixed with 2.5 μl of baculovirus genomic DNA ProEasy™ (AB vector, CA, USA) was used to transfect Sf9 cells grown in Insect-XPRESS™ medium (#BE12-7300, Lonza, Switzerland) supplemented with 10 mg/l gentamicin. […]

[2] = test system: s.c. MDA-MB-231 xenografts; assay: In vivo PET imaging in MDA-MB-231 tumor bearing mice; parameters: species or system NSG mice
Experimental: (§1) Animal models. All animal experiments were performed in accordance with the legal requirements of the European Community (Directive 2010/63/EU) and the corresponding German Animal Welfare Law (TierSchG, TierSchVersV) and were approved by the local authorizing agency (State Office for Nature, Environment and Consumer Protection North Rhine-Westphalia). MDA-MB-231 or AsPC-1 cells were cultivated in RPMI supplemented with 10% fetal calf serum and 100 U/mL penicillin and 100 μg/mL streptomycin. 5×10^6 MDA-MB-231 or AsPC-1 cells were injected subcutaneously into the shoulder region of 10 to 12 week old NSG mice (NOD.Cg-Prkdcscidll2rgtm1Wjl/SzJ, Charles River Laboratories). Two tumors were inoculated per animal and growth was followed by digital caliper measurements (volume=½ (length*width^2)).
In vivo Imaging. Adult C57bl/6 (biodistribution study, 21±1 g) or tumor bearing NSG mice (24±3 g) were anesthetized by isoflurane/O2 and one lateral tail vein was cannulated using a 27 G needle connected to 15 cm polyethylene catheter tubing. ^18F-PSB-19427 (˜450 kBq/g body weight) were injected as a bolus (50 μL compound flushed with 50 μL saline) via the tail vein and subsequent PET scanning was performed. In the blocking studies, a subgroup of tumor-bearing mice was injected with ˜1000 fold excess of unlabeled PSB-19427 10 minutes prior to radiotracer injection. […] Three-dimensional volumes of interest (VOIs) were defined over the respective organs in CT data sets, transferred to the coregistered PET data, and analyzed quantitatively. Regional uptake was calculated as a percentage of injected dose by dividing counts per milliliter in the VOI by total counts in the mouse multiplied by 100 (% ID/mL).
(§2) Ex vivo gamma counter measurements. […] Ex vivo biodistribution of radioactivity was analyzed by scintillation counting (Wizard2 gamma counter, Perkin-Elmer Life Science) and the radioactivity in respective organs decay-corrected and calculated as % ID per gram tissue (% ID/g).

[3] = Determination of log D7.4 (1-octanol/PBS); format: physicochemical
Experimental: (§3) Determination of the log D7.4-value of [^18F]2. The lipophilicity of [^18F]2 was determined following the procedure described by Prante et al.^17 Triazole [^18F]2 (˜400 kBq) in PBS buffer (10 μL, pH 7.4) was added to PBS buffer (590 μL, pH 7.4) and octan-1-ol (600 μL). The two-layer mixture was shaken for 3 min on a vortex mixer at RT and centrifuged (3000 rpm) for 5 min. The main part of the octanol layer (400 μL) was collected carefully and added to a new tube with PBS buffer (400 μL, pH 7.4). The two-layer mixture was shaken again for 10 min and centrifuged for 5 min (3000 rpm). Three samples were prepared and two aliquots (á 100 μL) of both layers were measured in a g-counter 2480 Wizard2 (Perkin-Elmer, Waltham, USA). The partition coefficient was determined by dividing cpm(octanol) by cpm(PBS) and indicated as log D7.4 (exp.).
as §3, with “D7,4-value” for “D7.4-value”, “[^18F]PSB-19427.” for “[^18F]2.”, “[^18F]PSB-19427” for “[^18F]2”, “al.^28” for “al.^17”

[4] = test system: s.c. AsPC-1 xenografts; assay: In vivo PET imaging in AsPC-1 tumor bearing mice; parameters: species or system NSG mice
Experimental: as §1, with “Two tumors were inoculated per animal and growth was followed by digital caliper measurements (volume=½ (length*width^2)).” left out
In vivo Imaging. […] Three-dimensional volumes of interest (VOIs) were defined over the respective organs in CT data sets, transferred to the coregistered PET data, and analyzed quantitatively. Regional uptake was calculated as a percentage of injected dose by dividing counts per milliliter in the VOI by total counts in the mouse multiplied by 100 (% ID/mL).
as §2

Compound: C#Cc1ccc(CN(CCC)c2nc(Cl)nc3c2ncn3[C@@H]2O[C@H](COP(=O)(O)CP(=O)(O)O)C(O)C2O)cc1 (stereo partly drawn) [Compound 1]
- Ki [1]: 0.372 ± 0.03 nM

Compound: CCCN(Cc1ccc(-c2cn(CC[18F])nn2)cc1)c1nc(Cl)nc2c1ncn2C1O[C@H](COP(=O)(O)CP(=O)(O)O)C(O)C1O (stereo partly drawn) [[^18F]2, [^18F]-[((2R,3S,4R,5R)-5-{2-chloro-6-[(4-{1-[2-(fluoro)ethyl]-1H-1,2,3-triazol-4-yl}benzyl)(propyl)amino]-9H-purin-9-yl}-3,4-dihydroxytetrahydrofuran-2-yl)methoxy]methylenebisphosphonic acid]
- change of tumor-to-muscle ratios in blocking study ([2]; MDA-MB-231, pretreating with unlabeled compound 2 10 min before tracer injection): significant decrease of tumor-to-muscle ratios
- accumulation in the tumor as compared to FDG ([2]; MDA-MB-231 tumors, 90 min and 4 h, especially in relation to muscle uptake): higher accumulation
- accumulation of the tracer in the tumor xenografts as compared to muscle tissue ([2]; PET 4 h p.i., i.v., MDA-MB-231 xenografts): pronounced accumulation
- factor of increase of measured solubility in PBS-buffer (1-octanol/PBS) versus clog P ([3]; compared to clog P 0.22): 2.2
- factor of increase of measured solubility in PBS-buffer (1-octanol/PBS) versus clog P ([3]; compared to clog P 0.47): 3.9
- logD ([3]; octan-1-ol/PBS buffer, 1-octanol/PBS pH 7.4): -0.12 ± 0.03
- change of tumor-to-muscle ratios in blocking study ([4]; AsPC-1, pretreating with PSB-12651 (7) 10 min before tracer injection): significant decrease of tumor-to-muscle ratios
- accumulation of the tracer in the tumor xenografts as compared to muscle tissue ([4]; PET 4 h p.i., i.v., AsPC-1 xenografts): pronounced accumulation
